# Patent US20170095565A1, “CHEMICALLY MODIFIED SMALL MOLECULES” (Nektar Therapeutics, priority 2003, published 2017)
# pEC50, pIC50: −log10 of the molar value. Where two headings read alike, the source gives them in different places.
# Assays:
# Mu-opiate = Mu-opiate (Homo sapiens, UniProt P35372); conditions: read-out: IC50, Mu-opiate binding activity
# [1] = Solubility of tested compounds (Table 1)
# μ-Opiate Receptors = μ-Opiate Receptors (Homo sapiens, UniProt P35372); experiment: biochemical; format: biochemical
# Source text: In the table above, for each compound, the bioactivity is provided as a measure of the relative bioactivity of each of the various PEG conjugates in comparison to parent drug. The EC50 is the concentration of agonist that provokes a response halfway between the baseline and maximum response in a standard dose-response curve.
# [2] = Oral bioavailability: plasma concentration after oral gavage; format: in vivo, Sprague Dawley rats; conditions: rats
# Procedure: Female Sprague Dawley® rats (150-200 g) were obtained from Harlan Labs. […] The animals were fasted overnight (day −1), but water was provided ad libitum.
# On the morning of dosing (day 0), each rat was weighed and the cannulas flushed with heparin (1000 U/mL). With the aid of a feeding tube, the animals were then dosed orally (gavage) with aqueous formulations containing either the PEGylated or the free drug. The dose was determined on a mg/kg body weight basis. […] At specific time intervals (1, 2 and 4 hours), blood samples (approximately 1.0 mL) were removed through the cannula, placed in 1.5 mL centrifuge tubes containing 14 μL of heparin, mixed and centrifuged to separate the plasma. The plasma samples were frozen (<−70° C.) until assayed. The plasma samples were purified by a precipitation technique and the analyte extracted and assayed using a high performance liquid chromatography (LC) method with a mass selective detector (MSD). […] When appropriate, an internal standard was used in the analysis.
# [3] = In situ brain perfusion, blood-brain barrier uptake; conditions: for Normalized Brain Uptake Rate (Mean ± SD): normalized to 5 μM dosing solution, 20 mL/min perfusion rate, 30 sec; for Reduction in brain uptake rate (BUR) compared to the parent compound (factor / times): vs parent drug
# Procedure: As utilized for these experiments, the in situ brain perfusion technique employed the intact rat brain to (i) determine drug permeation across the BBB under normal physiological conditions, and (ii) to study transport mechanisms such as passive diffusion verses carrier mediated transport.
# Perfusion was performed using the single time-point method. Briefly, the perfusion fluid (perfusate) containing the test compound(s) was infused into rats via the left external carotid artery at a constant rate by an infusion pump (20 mL/min). Perfusion flow rate was set to completely take over fluid flow to the brain at normal physiologic pressure (80-120 mm Hg). The duration of the perfusion was 30 seconds. Immediately following the perfusion, the brain vasculature was perfused for an additional 30 seconds with drug-free perfusate to remove residual drug. The pump was turned off and the brain was then immediately removed from the skull. Left-brain samples from each rat were first weighed and then homogenized using a Polytron homogenizer. Four (4) mL of 20% methanol was added to each rat brain for homogenization. After homogenization, the total volume of homogenate was measured and recorded.
# A measured amount of the homogenate was diluted with organic solvent and subsequently centrifuged. The supernatant was removed, evaporated in a stream of nitrogen and reconstituted and analyzed by LC/MS/MS. Quantification of drug concentrations in brain homogenate was performed against calibration curves generated by spiking the drugs into blank (i.e. drug-free) brain homogenate. Analysis of the drug concentrations in brain homogenates was carried out in triplicate, and the values were used to calculate the brain uptake rate in pmole per gram of rat brain per second of perfusion.
# All the data was normalized to a 5 μM dosing solution at 20 mL/min perfusion rate for 30 sec.
# [4] = PEGylated compounds normalized to 1 mg/kg dose
# Mu-opiate, sequence (P35372 whole entry): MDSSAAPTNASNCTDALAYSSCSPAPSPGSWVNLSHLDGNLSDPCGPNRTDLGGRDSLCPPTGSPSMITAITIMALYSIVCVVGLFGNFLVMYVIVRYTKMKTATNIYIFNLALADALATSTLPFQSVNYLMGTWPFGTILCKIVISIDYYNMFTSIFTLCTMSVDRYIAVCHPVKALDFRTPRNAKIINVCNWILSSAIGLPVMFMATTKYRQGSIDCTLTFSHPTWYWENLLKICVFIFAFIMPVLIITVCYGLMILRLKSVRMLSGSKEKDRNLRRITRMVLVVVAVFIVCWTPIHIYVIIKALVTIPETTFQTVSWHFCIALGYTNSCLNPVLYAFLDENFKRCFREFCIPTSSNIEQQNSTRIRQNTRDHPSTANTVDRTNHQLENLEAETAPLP
# μ-Opiate Receptors, sequence (P35372 whole entry): as above
smiles,measurement,setting,value
"C=CCN1CC[C@]23c4c5ccc(O)c4O[C@H]2[C@@H](OCCOCCOCCOCCOCCOCCOCCOCCOCCOC)CC[C@@]3(O)[C@H]1C5 (single isomer, unassigned) [α isomer of PEG9-Nal]",pIC50,Mu-opiate; naloxone series of compounds,7.19
same,Solubility,[1],soluble
"C=CCN1CCC23c4c5ccc(O)c4OC2C(O)CCC3(O)C1C5 (single isomer, unassigned) [α-6-naloxol, reference compound]",pEC50,"μ-Opiate Receptors; μ-opiate receptors, in-vitro",8.70
"C=CCN1CCC23c4c5ccc(O)c4OC2C(O)CCC3(O)C1C5 (single isomer, unassigned) [β-6-naloxol, reference compound]",pEC50,"μ-Opiate Receptors; μ-opiate receptors, in-vitro",7.97
"CC1=C(/C=C/C(C)=C/C=C/C(C)=C\C(=O)O)C(C)(C)CCC1 [13-cis-Retinoic Acid, 13-cis-retinoic acid, reference compound]","Mean Plasma Concentration ± SD, 1 hr",[2]; normalized to a 6 mg/kg dose,43.3 ± 24.0 ng/mL
same,"Mean Plasma Concentration ± SD, 2 hr",[2]; normalized to a 6 mg/kg dose,23.3 ± 14.8 ng/mL
same,Solubility,[1],0.47 µM
same,Normalized Brain Uptake Rate (Mean ± SD),[3],102.54 ± 37.31 pmole/gm brain/sec
"C=CCN1CC[C@]23c4c5ccc(O)c4O[C@H]2C(=O)CC[C@@]3(O)[C@H]1C5 [Naloxone, naloxone, reference compound]",Percentage of Active Remaining After Incubation with Liver Microsomes,0 min,100.0%
same,Percentage of Active Remaining After Incubation with Liver Microsomes,20 min,47.1%
same,Percentage of Active Remaining After Incubation with Liver Microsomes,40 min,27.6%
same,Percentage of Active Remaining After Incubation with Liver Microsomes,60 min,15.6%
same,Normalized Brain Uptake Rate (Mean ± SD),[3],15.64 ± 3.54 pmole/gm brain/sec
"COCCOCCOCCNC(=O)\C=C(C)/C=C/C=C(C)/C=C/C1=C(C)CCCC1(C)C [PEG3-13-cis-RA, CH3(OCH2CH2)3—NH-13-cis-Retinamide]","Mean Plasma Concentration ± SD, 1 hr",[2]; normalized to a 6 mg/kg dose,131.8 ± 55.0 ng/mL
same,"Mean Plasma Concentration ± SD, 2 hr",[2]; normalized to a 6 mg/kg dose,158.0 ± 133.0 ng/mL
same,Solubility,[1],3.13 µM
same,Normalized Brain Uptake Rate (Mean ± SD),[3],79.65 ± 20.91 pmole/gm brain/sec
"C=CCN1CC[C@]23c4c5ccc(O)c4O[C@H]2C(OCCOCCOCCOC)CC[C@@]3(O)[C@H]1C5 (some centres unmarked) [PEG3-Nal, 6-CH3—(OCH2CH2)3-Naloxol]",Normalized Brain Uptake Rate (Mean ± SD),[3],4.67 ± 3.57 pmole/gm brain/sec
"COCCOCCOCCOCCOCCNC(=O)\C=C(C)/C=C/C=C(C)/C=C/C1=C(C)CCCC1(C)C [PEG5-13-cis-RA, CH3—(OCH2CH2)5—NH-13-cis-retinamide]","Mean Plasma Concentration ± SD, 1 hr",[2]; normalized to a 6 mg/kg dose,77.7 ± 31.6 ng/mL
same,"Mean Plasma Concentration ± SD, 2 hr",[2]; normalized to a 6 mg/kg dose,61.6 ± 57.1 ng/mL
same,Solubility,[1],soluble
same,Normalized Brain Uptake Rate (Mean ± SD),[3],58.49 ± 13.44 pmole/gm brain/sec
"C=CCN1CC[C@]23c4c5ccc(O)c4O[C@H]2[C@H](OCCOCCOCCOCCOCCOC)CC[C@@]3(O)[C@H]1C5 [PEG5-Nal, α,β-6-CH3—(OCH2CH2)5—O-naloxol]",Normalized Brain Uptake Rate (Mean ± SD),[3],0.96 ± 0.36 pmole/gm brain/sec
same,Reduction in brain uptake rate (BUR) compared to the parent compound (factor / times),[3],16
"COCCOCCOCCOCCOCCOCCOCCNC(=O)\C=C(C)/C=C/C=C(C)/C=C/C1=C(C)CCCC1(C)C [PEG7-13-cis-RA, CH3—(OCH2CH2)7—NH-13-cis-Retinamide]","Mean Plasma Concentration ± SD, 1 hr",[2]; normalized to a 6 mg/kg dose,44.0 ± 13.0 ng/mL
same,"Mean Plasma Concentration ± SD, 2 hr",[2]; normalized to a 6 mg/kg dose,38.7 ± 4.2 ng/mL
same,Solubility,[1],58.3 µM
same,Normalized Brain Uptake Rate (Mean ± SD),[3],24.15 ± 1.49 pmole/gm brain/sec
same,Reduction in brain uptake rate (BUR) compared to the parent compound (factor / times),[3],four
"C=CCN1CC[C@]23c4c5ccc(O)c4O[C@H]2[C@H](OCCOCCOCCOCCOCCOCCOCCOC)CC[C@@]3(O)[C@H]1C5 [PEG7-Nal, α,β-6-CH3—(OCH2CH2)7—O-naloxol]",Reduction in brain uptake rate (BUR) compared to the parent compound (factor / times),[3],16
"COCCOCCOCCOCCOCCOCCOCCOCCOCCOCCOCCNC(=O)\C=C(C)/C=C/C=C(C)/C=C/C1=C(C)CCCC1(C)C [PEG11-13-cis-RA, CH3—(OCH2CH2)11—NH-13-cis-Retinamide]","Mean Plasma Concentration ± SD, 1 hr",[2]; normalized to a 6 mg/kg dose,21.8 ± 7.1 ng/mL
same,"Mean Plasma Concentration ± SD, 2 hr",[2]; normalized to a 6 mg/kg dose,58.2 ± 43.5 ng/mL
same,Solubility,[1],soluble
same,Normalized Brain Uptake Rate (Mean ± SD),[3],17.77 ± 1.68 pmole/gm brain/sec
same,Reduction in brain uptake rate (BUR) compared to the parent compound (factor / times),[3],five
"C=CCN1CC[C@]23c4c5ccc(O)c4O[C@H]2[C@@H](OCCOCCOCCOC)CC[C@@]3(O)[C@H]1C5 [α-PEG3-Nal, α-6-CH3—(OCH2CH2)3—O-naloxol]",pIC50,Mu-opiate,8.14
same,"Mean Plasma Concentration ± SD, 1 hr",[2]; [4],37.28 ± 4.99 ng/mL
same,"Mean Plasma Concentration ± SD, 2 hr",[2]; [4],14.92 ± 5.27 ng/mL
same,Bioactivity relative to the parent compound,μ-Opiate Receptors; from EC50 values,about 30%
same,pEC50,"μ-Opiate Receptors; μ-opiate receptors, in-vitro",8.14
same,Percentage of Active Remaining After Incubation with Liver Microsomes,0 min,100.0%
same,Percentage of Active Remaining After Incubation with Liver Microsomes,20 min,64.8%
same,Percentage of Active Remaining After Incubation with Liver Microsomes,40 min,51.7%
same,Percentage of Active Remaining After Incubation with Liver Microsomes,60 min,45.7%
same,Solubility,[1],soluble
"C=CCN1CC[C@]23c4c5ccc(O)c4O[C@H]2[C@H](OCCOCCOCCOCCOCCOC)CC[C@@]3(O)[C@H]1C5 [α-PEG5-Nal, α,β-6-CH3—(OCH2CH2)5—O-naloxol]",pIC50,Mu-opiate,7.50
same,"Mean Plasma Concentration ± SD, 1 hr",[2]; [4],27.37 ± 10.82 ng/mL
same,"Mean Plasma Concentration ± SD, 2 hr",[2]; [4],15.38 ± 6.65 ng/mL
same,pEC50,μ-Opiate Receptors,7.50
same,Percentage of Active Remaining After Incubation with Liver Microsomes,"rat, microsomes, 0 h",100.0%
same,Percentage of Active Remaining After Incubation with Liver Microsomes,"rat, microsomes, 20 min",84.1%
same,Percentage of Active Remaining After Incubation with Liver Microsomes,"rat, microsomes, 40 min",75.6%
same,Percentage of Active Remaining After Incubation with Liver Microsomes,"rat, microsomes, 1 h",69.2%
same,Solubility,[1],soluble
"C=CCN1CC[C@]23c4c5ccc(O)c4O[C@H]2[C@H](OCCOCCOCCOCCOCCOCCOCCOC)CC[C@@]3(O)[C@H]1C5 [α-PEG7-Nal, α,β-6-CH3—(OCH2CH2)7—O-naloxol]","Mean Plasma Concentration ± SD, 1 hr",[2]; [4],40.08 ± 16.61 ng/mL
same,"Mean Plasma Concentration ± SD, 2 hr",[2]; [4],39.51 ± 9.57 ng/mL
same,Percentage of Active Remaining After Incubation with Liver Microsomes,"rat, microsomes, 0 h",100.0%
same,Percentage of Active Remaining After Incubation with Liver Microsomes,"rat, microsomes, 20 min",87.4%
same,Percentage of Active Remaining After Incubation with Liver Microsomes,"rat, microsomes, 40 min",81.6%
same,Percentage of Active Remaining After Incubation with Liver Microsomes,"rat, microsomes, 1 h",76.9%
same,Solubility,[1],soluble
same,Normalized Brain Uptake Rate (Mean ± SD),[3]; listed as PEG7-Nal (α isomer),0.94 ± 0.32 pmole/gm brain/sec
"C=CCN1CC[C@]23c4c5ccc(O)c4O[C@H]2[C@H](OCCOCCOCCOCCOCCOC)CC[C@@]3(O)[C@H]1C5 [β-PEG5-Nal, α,β-6-CH3—(OCH2CH2)5—O-naloxol]",pIC50,Mu-opiate; naloxone series of compounds,7.36
same,"Mean Plasma Concentration ± SD, 1 hr",[2]; [4],69.34 ± 15.03 ng/mL
same,"Mean Plasma Concentration ± SD, 2 hr",[2]; [4],36.92 ± 15.84 ng/mL
same,pEC50,"μ-Opiate Receptors; μ-opiate receptors, in-vitro",7.36
same,Solubility,[1],soluble
"C=CCN1CC[C@]23c4c5ccc(O)c4O[C@H]2[C@H](OCCOCCOCCOCCOCCOCCOCCOC)CC[C@@]3(O)[C@H]1C5 [β-PEG7-Nal, α,β-6-CH3—(OCH2CH2)7—O-naloxol]","Mean Plasma Concentration ± SD, 1 hr",[2]; [4],50.41 ± 36.44 ng/mL
same,"Mean Plasma Concentration ± SD, 2 hr",[2]; [4],50.08 ± 25.28 ng/mL
same,Solubility,[1],soluble
same,Normalized Brain Uptake Rate (Mean ± SD),[3],0.70 ± 0.19 pmole/gm brain/sec
